Experimental data published in ChEMBL document CHEMBL1201862, “PubChem BioAssay data set” (2004).
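Method: 48-hour compound exposure of cells in 96-well plates, five concentrations, linear interpolation of endpoints. GI50 is the concentration that inhibits growth by half.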 Calls of active or inactive are those of the source. Rule as the data show it: active = GI50 up to about 1.1 µM and inactive = higher.

Assays:
Assay in all cases: NCI-60 cell line screen, 48 h
MDA-MB-231 = system: MDA-MB-231
Malme-3M = system: Malme-3M
RXF 393 = system: RXF 393
SW-620 = system: SW-620
OVCAR-5 = system: OVCAR-5
CCRF-CEM = system: CCRF-CEM
HOP-92 = system: HOP-92
OVCAR-3 = system: OVCAR-3
OVCAR-8 = system: OVCAR-8
SF-268 = system: SF-268
U-251 = system: U-251
HOP-62 = system: HOP-62
ACHN = system: ACHN
IGROV-1 = system: IGROV-1
OVCAR-4 = system: OVCAR-4
NCI/ADR-RES = system: NCI/ADR-RES
HT-29 = system: HT-29
M14 = system: M14
MDA-N = system: MDA-N
NCI-H226 = system: NCI-H226

Structure (SMILES)	GI50 (MDA-MB-231)	GI50 (Malme-3M)	GI50 (RXF 393)	GI50 (SW-620)	GI50 (OVCAR-5)	GI50 (CCRF-CEM)	GI50 (HOP-92)	GI50 (OVCAR-3)	GI50 (OVCAR-8)	GI50 (SF-268)	GI50 (U-251)	GI50 (HOP-62)	GI50 (ACHN)	GI50 (IGROV-1)	GI50 (OVCAR-4)	GI50 (NCI/ADR-RES)	GI50 (HT-29)	GI50 (M14)	GI50 (MDA-N)	GI50 (NCI-H226)
CC(C)C(C/C=C1\CC(CO)(COC(=O)CC(C(C)C)C(C)C)OC1=O)C(C)C (centres undefined)	12.8 µM (inactive)	1.45 µM (inactive)	14.5 µM (inactive)	7.46 µM (inactive)	13.9 µM (inactive)	4.06 µM (inactive)	0.902 µM (active)	15.6 µM (inactive)	17.9 µM (inactive)	14.2 µM (inactive)	13.8 µM (inactive)	5.08 µM (inactive)	10.3 µM (inactive)	14.7 µM (inactive)	17.6 µM (inactive)	16 µM (inactive)	17.7 µM (inactive)	11.7 µM (inactive)	2.96 µM (inactive)	9.04 µM (inactive)
O=C(O)c1cccc(/[As]=[As]\c2cccc(C(=O)O)c2)c1 (centres undefined)	21.6 µM (inactive)	21.4 µM (inactive)	26.9 µM (inactive)	32.7 µM (inactive)	24.5 µM (inactive)	21.9 µM (inactive)	18.7 µM (inactive)	34.4 µM (inactive)	34.6 µM (inactive)	29.3 µM (inactive)	15.7 µM (inactive)	35.2 µM (inactive)	73.3 µM (inactive)	34.2 µM (inactive)	51.9 µM (inactive)	75.7 µM (inactive)	49.3 µM (inactive)	45.9 µM (inactive)	61.1 µM (inactive)	84.9 µM (inactive)
COc1ccc2nc3ccc(OC)cc3c(SCCO)c2c1	34.7 µM (inactive)	15.6 µM (inactive)	12.6 µM (inactive)	28.4 µM (inactive)	> 100 µM (inactive)	3.61 µM (inactive)	> 67.5 µM (inactive)	36 µM (inactive)	17 µM (inactive)	25.2 µM (inactive)	65 µM (inactive)	> 58.9 µM (inactive)	23.7 µM (inactive)	15 µM (inactive)	63.8 µM (inactive)	27 µM (inactive)	17.3 µM (inactive)	77.3 µM (inactive)	9.62 µM (inactive)	> 61.7 µM (inactive)
CN(CCn1cnc2c1c(=O)n(C)c(=O)n2C)C1CCCCC1	> 100 µM (inactive)	> 100 µM (inactive)	> 100 µM (inactive)	> 100 µM (inactive)	> 100 µM (inactive)	> 100 µM (inactive)	> 100 µM (inactive)	> 100 µM (inactive)	> 100 µM (inactive)	> 100 µM (inactive)	> 100 µM (inactive)	> 100 µM (inactive)	> 100 µM (inactive)	> 100 µM (inactive)	> 100 µM (inactive)	> 100 µM (inactive)	> 100 µM (inactive)	> 100 µM (inactive)	> 100 µM (inactive)	> 100 µM (inactive)
COc1cc([C@@H]2c3cc4c(cc3[C@H](OC3OC5COC(C(C)C)OC5C(O)C3O)C3COC(=O)[C@@H]32)OCO4)cc(OC)c1O (some centres undefined)	14.1 µM (inactive)	16.6 µM (inactive)	4.76 µM (inactive)	6.53 µM (inactive)	12.4 µM (inactive)	6.03 µM (inactive)	11.9 µM (inactive)	11.8 µM (inactive)	9.31 µM (inactive)	9.86 µM (inactive)	2.53 µM (inactive)	11.7 µM (inactive)	3.51 µM (inactive)	5.21 µM (inactive)	15.1 µM (inactive)	9.38 µM (inactive)	2.97 µM (inactive)	11.4 µM (inactive)	2.4 µM (inactive)	5.26 µM (inactive)
COc1ccc(C(=O)Sc2c(-c3ccccc3)c(=O)n(-c3ccccc3)c(=S)n2-c2ccccc2)cc1	> 100 µM (inactive)	48.5 µM (inactive)	24.1 µM (inactive)	> 100 µM (inactive)	> 100 µM (inactive)	22.3 µM (inactive)	24.1 µM (inactive)	30.5 µM (inactive)	21.3 µM (inactive)	67.5 µM (inactive)	47 µM (inactive)	34.5 µM (inactive)	40.5 µM (inactive)	10.1 µM (inactive)	44.4 µM (inactive)	> 100 µM (inactive)	> 100 µM (inactive)	68.7 µM (inactive)	> 100 µM (inactive)	5.73 µM (inactive)
Cc1ccc(C2=Nc3cc(C)c(Cl)cc3S(=O)(=O)NN2)cc1	23.3 µM (inactive)	> 100 µM (inactive)	72.1 µM (inactive)	> 100 µM (inactive)	–	38.5 µM (inactive)	> 100 µM (inactive)	> 100 µM (inactive)	> 100 µM (inactive)	82.6 µM (inactive)	> 100 µM (inactive)	> 100 µM (inactive)	65.5 µM (inactive)	> 100 µM (inactive)	77.4 µM (inactive)	> 100 µM (inactive)	> 100 µM (inactive)	> 100 µM (inactive)	> 100 µM (inactive)	> 100 µM (inactive)
CCC1(CC)C(=O)CC[C@@]2(C)C1=CC[C@H]1[C@@H]3CC[C@H](O)[C@@]3(C)CC[C@@H]12	47.9 µM (inactive)	36.1 µM (inactive)	36.6 µM (inactive)	19.1 µM (inactive)	53.3 µM (inactive)	19.6 µM (inactive)	37.5 µM (inactive)	19.7 µM (inactive)	23.5 µM (inactive)	32.5 µM (inactive)	18.1 µM (inactive)	19.1 µM (inactive)	40.4 µM (inactive)	37.8 µM (inactive)	34.8 µM (inactive)	43.2 µM (inactive)	15 µM (inactive)	43.4 µM (inactive)	31.3 µM (inactive)	29 µM (inactive)
CCOc1ccc(/N=N/c2ccc3cc(/C(C)=N/NC(=O)/C(C#N)=C\c4ccc(N(CCC#N)CCC#N)cc4)c(=O)oc3c2)cc1	> 10 µM (inactive)	> 10 µM (inactive)	> 10 µM (inactive)	> 10 µM (inactive)	> 10 µM (inactive)	> 10 µM (inactive)	> 10 µM (inactive)	> 10 µM (inactive)	> 10 µM (inactive)	> 10 µM (inactive)	> 10 µM (inactive)	> 10 µM (inactive)	> 10 µM (inactive)	> 10 µM (inactive)	> 10 µM (inactive)	> 10 µM (inactive)	> 10 µM (inactive)	> 10 µM (inactive)	> 10 µM (inactive)	> 10 µM (inactive)
COC(=O)c1c2c(cc3c1CC1(C3)Cc3ccc4c(c3C1=O)CCC4)CCC2 (centres undefined)	2.01 µM (inactive)	3.39 µM (inactive)	0.537 µM (active)	4.07 µM (inactive)	> 21.1 µM (inactive)	3.63 µM (inactive)	1.84 µM (inactive)	1.94 µM (inactive)	4.61 µM (inactive)	6.31 µM (inactive)	3.33 µM (inactive)	3.25 µM (inactive)	5.15 µM (inactive)	4.99 µM (inactive)	10.2 µM (inactive)	1.92 µM (inactive)	2.58 µM (inactive)	3.03 µM (inactive)	0.608 µM (active)	5.09 µM (inactive)
CCN(CC)CCNc1c2ccccc2nc2cccc([N+](=O)[O-])c12	0.00136 µM (active)	0.00953 µM (active)	0.0176 µM (active)	0.0116 µM (active)	0.0101 µM (active)	0.0462 µM (active)	0.0146 µM (active)	0.0123 µM (active)	0.0177 µM (active)	0.012 µM (active)	0.0123 µM (active)	0.00638 µM (active)	0.00665 µM (active)	0.0182 µM (active)	0.0125 µM (active)	0.0112 µM (active)	0.0122 µM (active)	0.00925 µM (active)	0.00179 µM (active)	0.0179 µM (active)
N=C1/C(=C/c2ccccc2)C(=O)N=C2SC=NN12	> 100 µM (inactive)	> 100 µM (inactive)	> 100 µM (inactive)	> 100 µM (inactive)	> 100 µM (inactive)	> 100 µM (inactive)	> 100 µM (inactive)	> 100 µM (inactive)	> 100 µM (inactive)	> 100 µM (inactive)	> 100 µM (inactive)	> 100 µM (inactive)	> 100 µM (inactive)	> 100 µM (inactive)	> 100 µM (inactive)	> 100 µM (inactive)	> 100 µM (inactive)	> 100 µM (inactive)	> 100 µM (inactive)	> 100 µM (inactive)
CC1=C[C@@H](C)C[C@]2(C)CC[C@H](O2)[C@]23CC[C@](C(=O)O)(C[C@H](O2)[C@@H]2O[C@@](C)(CC2=O)[C@@H](O)[C@H]2CC[C@@]4(CCC[C@@H](O4)[C@H](C)C(=O)O[C@H]4C[C@H]([C@]5(O)OCC[C@H](C)[C@@H]5O)O[C@H]4C=C1)O2)O3	> 10 µM (inactive)	> 10 µM (inactive)	> 10 µM (inactive)	> 10 µM (inactive)	> 10 µM (inactive)	> 10 µM (inactive)	> 3.92 µM (inactive)	> 10 µM (inactive)	> 10 µM (inactive)	> 10 µM (inactive)	> 10 µM (inactive)	> 9.59 µM (inactive)	> 10 µM (inactive)	> 5.5 µM (inactive)	> 10 µM (inactive)	> 10 µM (inactive)	> 10 µM (inactive)	> 9.38 µM (inactive)	> 8.95 µM (inactive)	> 5.71 µM (inactive)
